Laboratory results: patent US12037345B2, “Heterobicyclic compounds for inhibiting the activity of SHP2” (TAIHO PHARMACEUTICAL CO., LTD., priority 2018, dated 2024)
Structures can show the parent of a compound that is named as a salt. Where two headings read alike, the source gives them in different places.

Columns and labels:
[1] = biological target: SHP2 (Homo sapiens (Human), UniProt Q06124); assay: SHP2 Biochemical Assay (DiFMUP conversion, pIRS1-activated)
Summary of the method: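 Rates of DiFMU formation were followed 30 min at ex 360/em 450 nm, with 50 μM DiFMUP, 10 pM SHP2 and pIRS1 peptide ([…]) after 30 min compound pre-incubation at pH 7.0 Bis-Tris propane. Four-parameter logistic IC50s in singlicate; repeat runs averaged.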

[2] = tested on: pERK (phospho-p44/42 MAPK Thr202/Tyr204) in HCC827 cells; assay: Cellular pERK Inhibition Assay, Method B (PathScan phospho-p44/42 MAPK sandwich ELISA); format: cell-based; details: for IC50: Homo sapiens
Protocol: Cellular pERK Inhibition Assay
HCC827 cells (ATCC, Manassas, USA) were seeded into 96-well plates at a density of 1×10^5 cells/well in RPMI medium supplemented with 10% FBS and incubated 24h. Compounds were diluted first in DMSO and then into serum-free medium, before being added to cells in triplicate to give a final concentration of 0.1% DMSO. Plates were incubated at 37° C. for the indicated time in a humidified atmosphere of 5% CO2 in air.
Following compound treatment, medium was removed and cells were lysed by adding 50 μL of lysis buffer (Cell Signalling Technology, Beverly, USA) to each well. Plates were then incubated at room temperature for 25 minutes with shaking. pERK levels were measured in lysates using the PathScan(Registered Trademark) phospho-p44/42 MAPK (Thr202/Tyr204) sandwich ELISA (Cell Signalling Technology, Beverly, USA) as per kit instructions. Briefly, 50 μL of cell lysate was added to 50 μL of ELISA sample diluent in a 96-well ELISA plate and incubated overnight at 4° C. Following washing, 100 μL of detection antibody was added per well and the plates incubated for 1 hour at 37° C. Plates were washed again and incubated at 37° C. for 30 minutes with 100 μl of HRP-linked secondary antibody per well. After final washing, 100 μL per well of TMB substrate was added and plates incubated at 37° C. to develop colour. Colour development was stopped by the addition of 100 μL per well of stop solution. Plates were read at 450 nm on a SpectraMax Gemini reader (Molecular Devices, Uckfield, UK).
The average signal from blank wells (no cells added) was subtracted from the signals from each sample well. Levels of pERK were then expressed as “percent of control”, using DMSO treated samples as control. Dose response curves were generated using GraphPad Prism Version 6 (GraphPad Software, La Jolla, USA) and fitted using the four parameter logistic curve fit.

[3] = Table 19, head prints unit as "-M"
[4] = Table 19, head prints unit as "-M", read-out: pERK (IC50) Method B
[5] = Table 20, read-out: pERK (IC50, μM) Method B

SMILES	IC50 [1, 3] [nM]	IC50 [2, 4] [µM]	IC50 ([1]; Table 20) [nM]	IC50 [2, 5] [µM]	further results
CN(C)c1ccc2ccc(-c3c[nH]c4nc(N5[C@H]6CC[C@@H]5[C@H](N)C6)n(C)c(=O)c34)c(Cl)c2n1 [Example 198, 2-[(1R,2R,4S)-2-amino-7-azabicyclo[2.2.1]heptan-7-yl]-5-[8-chloro-2-(dimethylamino)quinolin-7-yl]-3-methyl-3H,4H,7H-pyrrolo[2,3-d]pyrimidin-4-one hydrochloride]	–	–	13	0.066	–
Cn1cc2c(Cl)c(-c3c[nH]c4nc(N5[C@H]6CC[C@@H]5[C@](C)(N)C6)n(C)c(=O)c34)ccc2n1 [Example 195, 2-[(endo)-2-amino-2-methyl-7-azabicyclo[2.2.1]heptan-7-yl]-5-(4-chloro-2-methyl-2H-indazol-5-yl)-3-methyl-3H,4H,7H-pyrrolo[2,3-d]pyrimidin-4-one hydrochloride]	–	–	16	0.045	–
Cn1cc2c(Cl)c(-c3n[nH]c4nc(N5C6CCC5CNC6)n(C)c(=O)c34)ccc2n1 [Example 137, 3-(4-chloro-2-methyl-2H-indazol-5-yl)-6-{3,8-diazabicyclo[3.2.1]octan-8-yl}-5-methyl-1H,4H,5H-pyrazolo[3,4-d]pyrimidin-4-one]	59	–	–	–	pERK Method B, % at given concentration ([2]; Table 19, at 3.0 μM): 45% at 3.0 μM
Cn1cc2c(Cl)c(-c3c[nH]c4nc(N5[C@@H]6CCNC[C@H]5CC6)n(C)c(=O)c34)ccc2n1 (racemic) [Example 153, rac-5-(4-chloro-2-methyl-2H-indazol-5-yl)-2-[(1R,6S)-3,9-diazabicyclo[4.2.1]nonan-9-yl]-3-methyl-3H,4H,7H-pyrrolo[2,3-d]pyrimidin-4-one]	26	0.52	–	–	–
CCn1cc2c(Cl)c(-c3c[nH]c4nc(N5CC6CNC(C6)C5)n(C)c(=O)c34)ccc2n1 (single isomer, unassigned) [Example 191, 5-(4-chloro-2-ethyl-2H-indazol-5-yl)-2-{3,6-diazabicyclo[3.2.1]octan-3-yl}-3-methyl-3H,4H,7H-pyrrolo[2,3-d]pyrimidin-4-one hydrochloride]	–	–	92	–	pERK Method B, % at given concentration ([2]; Table 20, at 10 uM): 60% at 10 uM
CCn1cc2c(Cl)c(-c3c[nH]c4nc(N5CC6CNCC5C6)n(C)c(=O)c34)ccc2n1 (single isomer, unassigned) [Example 192, 5-(4-chloro-2-ethyl-2H-indazol-5-yl)-2-{3,6-diazabicyclo[3.2.1]octan-6-yl}-3-methyl-3H,4H,7H-pyrrolo[2,3-d]pyrimidin-4-one hydrochloride]	–	–	67	0.99	–
Cn1c(N2CC[C@H](N)[C@H](F)C2)nc2[nH]cc(-c3ccc4ncsc4c3Cl)c2c1=O [Example 187, 2-[(3R,4S)-4-amino-3-fluoropiperidin-1-yl]-5-(7-chloro-1,3-benzothiazol-6-yl)-3-methyl-3H,4H,7H-pyrrolo[2,3-d]pyrimidin-4-one hydrochloride]	–	–	51	0.8	–
Cn1cc2c(Cl)c(-c3n[nH]c4nc(N5[C@@H]6CC[C@H]5C[C@@H](N)C6)n(C)c(=O)c34)ccc2n1 [Example 136, endo-6-[3-amino-8-azabicyclo[3.2.1]octan-8-yl]-3-(4-chloro-2-methyl-2H-indazol-5-yl)-5-methyl-1H,4H,5H-pyrazolo[3,4-d]pyrimidin-4-one]	30	2.7	–	–	–
Cn1nc2ccc(-c3n[nH]c4nc(N5CC6COCC(C5)N6)n(C)c(=O)c34)c(Cl)c2c1Cl [Example 146, 3-(3,4-dichloro-2-methyl-2H-indazol-5-yl)-5-methyl-6-{3-oxa-7,9-diazabicyclo[3.3.1]nonan-7-yl}-1H,4H,5H-pyrazolo[3,4-d]pyrimidin-4-one hydrochloride salt]	57	3.8	–	–	–
Cn1cc2c(Cl)c(-c3c[nH]c4nc(N5[C@H]6CCNC[C@@H]5CC6)n(C)c(=O)c34)ccc2n1 [Example 188, 5-(4-chloro-2-methyl-2H-indazol-5-yl)-2-[(1S,6R)-3,9-diazabicyclo[4.2.1]nonan-9-yl]-3-methyl-3H,4H,7H-pyrrolo[2,3-d]pyrimidin-4-one hydrochloride]	–	–	41	0.56	–
Cn1cc2c(Cl)c(-c3c[nH]c4nc(N5[C@@H]6CCNC[C@H]5CC6)n(C)c(=O)c34)ccc2n1 [Example 189, 5-(4-chloro-2-methyl-2H-indazol-5-yl)-2-[(1R,6S)-3,9-diazabicyclo[4.2.1]nonan-9-yl]-3-methyl-3H,4H,7H-pyrrolo[2,3-d]pyrimidin-4-one hydrochloride]	–	–	19	0.23	–

More lines, main results first:

IC50 [1, 3] [nM]	IC50 [2, 4] [µM]	IC50 ([1]; Table 20) [nM]	SMILES	IC50 [2, 5] [µM]	further results
24	0.025	–	CCn1cc2c(Cl)c(-c3n[nH]c4nc(N5CCC6(CC5)CO[C@@H](C)[C@H]6N)n(C)c(=O)c34)ccc2n1 [Example 148, 6-[(3S,4S)-4-amino-3-methyl-2-oxa-8-azaspiro[4.5]decan-8-yl]-3-(4-chloro-2-ethyl-2H-indazol-5-yl)-5-methyl-1H,4H,5H-pyrazolo[3,4-d]pyrimidin-4-one hydrochloride salt]	–	–
–	–	36	CCn1cc2ccc(-c3c[nH]c4nc(N5CCC6(CC5)COC[C@H]6N)n(C)c(=O)c34)c(Cl)c2n1 [Example 182, 2-[(4S)-4-amino-2-oxa-8-azaspiro[4.5]decan-8-yl]-5-(7-chloro-2-ethyl-2H-indazol-6-yl)-3-methyl-3H,4H,7H-pyrrolo[2,3-d]pyrimidin-4-one hydrochloride]	2.2	–
20	0.097	–	Cn1cc2c(Cl)c(-c3n[nH]c4nc(N5CCC6(CC5)COC[C@H]6N)n(C)c(=O)c34)ccc2n1 [Example 139, 6-[(4S)-4-amino-2-oxa-8-azaspiro[4.5]decan-8-yl]-3-(4-chloro-2-methyl-2H-indazol-5-yl)-5-methyl-1H,4H,5H-pyrazolo[3,4-d]pyrimidin-4-one]	–	–
19	0.21	–	Cn1cc2c(Cl)c(-c3n[nH]c4nc(N5CCC6(CC5)C[C@@H](F)C[C@H]6N)n(C)c(=O)c34)ccc2n1 [Example 144, 6-[(1R,3R)-1-amino-3-fluoro-8-azaspiro[4.5]decan-8-yl]-3-(4-chloro-2-methyl-2H-indazol-5-yl)-5-methyl-1H,4H,5H-pyrazolo[3,4-d]pyrimidin-4-one hydrochloride salt]	–	–
–	–	16	C[C@@H]1OCC2(CCN(c3nc4[nH]cc(-c5cc(F)c6nn(C)cc6c5Cl)c4c(=O)n3C)CC2)[C@@H]1N [Example 194, 2-[(3S,4S)-4-amino-3-methyl-2-oxa-8-azaspiro[4.5]decan-8-yl]-5-(4-chloro-7-fluoro-2-methyl-2H-indazol-5-yl)-3-methyl-3H,4H,7H-pyrrolo[2,3-d]pyrimidin-4-one hydrochloride]	0.043	–
21	0.92	–	CCn1cc2c(Cl)c(-c3c[nH]c4nc(N5CCCC(N)CC5)n(C)c(=O)c34)ccc2n1 (racemic) [Example 154, rac-2-(4-aminoazepan-1-yl)-5-(4-chloro-2-ethyl-2H-indazol-5-yl)-3-methyl-3H,4H,7H-pyrrolo[2,3-d]pyrimidin-4-one hydrochloride]	–	–
22	0.081	–	C[C@@H]1OCC2(CCN(c3nc4[nH]nc(-c5ccc6nn(C)cc6c5Cl)c4c(=O)n3C)CC2)[C@@H]1N [Example 143, 6-[(3S,4S)-4-amino-3-methyl-2-oxa-8-azaspiro[4.5]decan-8-yl]-3-(4-chloro-2-methyl-2H-indazol-5-yl)-5-methyl-1H,4H,5H-pyrazolo[3,4-d]pyrimidin-4-one]	–	–
23	0.52	–	CCn1cc2c(Cl)c(-c3c[nH]c4nc(N5CCCNCC5)n(C)c(=O)c34)ccc2n1 [Example 151, 5-(4-chloro-2-ethyl-2H-indazol-5-yl)-2-(1,4-diazepan-1-yl)-3-methyl-3H,4H,7H-pyrrolo[2,3-d]pyrimidin-4-one hydrochloride]	–	–
